Results reported in article PMC12186843, “Targeting GABAergic Hypofunction Associated with Schizophrenia: Identification of α1β2γ2GABA‑A Receptor Ligands with Neuroprotective and Antipsychotic Properties” (ACS Chemical Neuroscience, 2025).
Values joined by “and” are separate entries in the source; they are usually repeats but may differ in a detail not shown here. Identical values can stand only once. Counter-ions that a name gives are not always drawn.

System: not listed separately
Assay: PAMPA permeability assay
Type: in vitro ADME
Conditions: PBS pH 7.4, 100 μM, 5 h, zolpidem tested as tartrate
Description: PAMPA. The precoated PAMPA Plate System Gentest, obtained from Corning (Tewksbury, MA, USA), was used for the permeability study. The system includes a 96-well receiver filter plate precoated with structured phospholipid layers and a matching donor microplate. Stock solutions of the test compounds and reference drugs were prepared in PBS buffer (pH 7.4) at a final concentration of 100 μM. Each compound solution (200 μL) was added to the donor wells and incubated at room temperature for 5 h. The quantity of molecules that penetrated from the donor wells to the acceptor wells through the phospholipid membrane was determined using UPLC-MS spectrometry (Waters ACQUITY TQD system with the TQ Detector, Waters, Milford, USA) with an internal standard. Permeability coefficients (Pe, cm/s) were calculated according to the formula provided by the manufacturer.
For `CCN1CCCC1CNC(=O)c1cc(S(N)(=O)=O)ccc1OC` (centres unmarked) [sulpiride, reference compound], the “Permeability Pe ± SD” value was 0.016 ± 0.003 ·10^–6 cm/s.

Same assay, conditions: pH 7.4, PAMPA, PBS pH 7.4, 100 μM, zolpidem tested as tartrate, read-out: Permeability Pe ± SD
For `Cc1ccc2nc(-c3ccc(F)cc3)c(CC(=O)N3CCNCC3)n2c1` [Compound 5, 2-[2-(4-Fluorophenyl)-6-methylimidazo[1,2-a]pyridin-3-yl]-1-(piperazin-1-yl)ethan-1-one], the Papp at 5 h, 100 μM was 3.35 ± 0.4 ×10⁻⁶ cm/s. `Cc1ccc2nc(-c3ccc(F)cc3)c(CC(=O)NC3CCNC3)n2c1` (centres unmarked) [Compound 16, 2-[2-(4-Fluorophenyl)-6-methylimidazo[1,2-a]pyridin-3-yl]-N-(pyrrolidin-3-yl)acetamide] gave a Papp at 5 h, 100 μM of 0.154 ± 0.005 ×10⁻⁶ cm/s.

Target: GABA-A receptor
Assay: Radioligand binding at the GABA-A receptor
Set-up: species or system rat
Conditions: mean of two-three independent experiments; read-out: GABA-A Ki ± SEM
Description: The study was conducted in accordance with previously established protocols, and performed in duplicate. Rat brains were homogenized and prepared following the described methodologies. The assay was carried out directly on 96-well microplates containing 50 mM Tris-HCl buffer (pH 7.4) in a total volume of 300 μL. […] To determine nonspecific binding, 100 μM GABA was included in the mixture. The 96-well microplates were incubated at 0 °C for 10 min, followed by rapid filtration through FilterMate B glass fiber filters (PerkinElmer, USA) using a Harvester-96 MACH III FM (Tomtec, USA). The filters were gently dried in a microwave and sealed in plastic bags (PerkinElmer, USA). Each filter was then immersed in 10 mL of Ultima Gold MV liquid scintillation cocktail (PerkinElmer, USA). […] Ki values were calculated using the Cheng and Prusoff equation, and statistical analyses were conducted using GraphPad Prism (version 4.0, San Diego, CA, USA)
For `Cc1ccc2nc(-c3ccc(F)cc3)c(CC(=O)N3CCN(C)CC3)n2c1` [Compound 4, 2-[2-(4-Fluorophenyl)-6-methylimidazo[1,2-a]pyridin-3-yl]-1-(4-methylpiperazin-1-yl)ethan-1-one formate salt], the Ki was 278 ± 43 nM. `Cc1ccc2nc(-c3ccc(F)cc3)c(CC(=O)N3CCC(C)CC3)n2c1` [Compound 7, 2-[2-(4-Fluorophenyl)-6-methylimidazo[1,2-a]pyridin-3-yl]-1-(4-methylpiperidin-1-yl)ethan-1-one] gave a Ki of 204 ± 20.6 nM. `Cc1ccc2nc(-c3ccc(F)cc3)c(CC(=O)N3CCN(C(C)C)CC3)n2c1` [Compound 8, 2-[2-(4-Fluorophenyl)-6-methylimidazo[1,2-a]pyridin-3-yl]-1-[4-(propan-2-yl)piperazin-1-yl]ethan-1-one] showed a Ki of 5230 ± 510 nM. `Cc1ccc2nc(-c3ccc(F)cc3)c(CC(=O)N3CCN(C4CC4)CC3)n2c1` [Compound 9, 1-(4-Cyclopropylpiperazin-1-yl)-2-[2-(4-fluorophenyl)-6-methylimidazo[1,2-a]pyridin-3-yl]ethan-1-one] showed a Ki of 1340 ± 46 nM. In the case of `Cc1ccc2nc(-c3ccc(F)cc3)c(CC(=O)N3CCN(CC(C)C)CC3)n2c1` [Compound 10, 2-[2-(4-Fluorophenyl)-6-methylimidazo[1,2-a]pyridin-3-yl]-1-[4-(2-methylpropyl)piperazin-1-yl]ethan-1-one], the Ki is reported as 3330 ± 374 nM. Work on `Cc1ccc2nc(-c3ccc(F)cc3)c(CC(=O)N3CCN(C(C)(C)C)CC3)n2c1` [Compound 11, 1-(4-tert-Butylpiperazin-1-yl)-2-[2-(4-fluorophenyl)-6-methylimidazo[1,2-a]pyridin-3-yl]ethan-1-one] yielded a Ki of 7820 ± 1720 nM. `Cc1ccc2nc(-c3ccc(F)cc3)c(CC(=O)N3CC4CCCCC4C3)n2c1` (centres unmarked) [Compound 12, 2-[2-(4-Fluorophenyl)-6-methylimidazo[1,2-a]pyridin-3-yl]-1-(octahydro-1H-isoindol-2-yl)ethan-1-one] showed a Ki of 517 ± 61.2 nM. `Cc1ccc2nc(-c3ccc(F)cc3)c(CC(=O)N3CCCCCC3)n2c1` [Compound 13, 1-(Azepan-1-yl)-2-(2-(4-fluorophenyl)-6-methylimidazo[1,2-a]pyridin-3-yl)ethan-1-one] gave a Ki of 453 ± 59.3 nM. With `Cc1ccc2nc(-c3ccc(F)cc3)c(CC(=O)N3CCSC3(C)C)n2c1` [Compound 14, 1-(2,2-Dimethyl-1,3-thiazolidin-3-yl)-2-[2-(4-fluorophenyl)-6-methylimidazo[1,2-a]pyridin-3-yl]ethan-1-one] the Ki was 551 nM and 552 nM. For `Cc1ccc2nc(-c3ccc(F)cc3)c(CC(=O)NC3CCNC3)n2c1` (centres unmarked) [Compound 16, 2-[2-(4-Fluorophenyl)-6-methylimidazo[1,2-a]pyridin-3-yl]-N-(pyrrolidin-3-yl)acetamide], the Ki was < 200 nM and 140 nM. Molecule `CN1C(=O)CN=C(c2ccccc2)c2cc(Cl)ccc21` [diazepam, reference compound] has a Ki of 5.6 ± 0.7 nM.
